Measurements reported in PMC3435281 (PLoS ONE, 2012).

Experiments:
[1] = test system: AHR^−/− splenocytes; experiment: CYP1A1 and IDO mRNA in AHR^−/− splenocytes; assay type: cell-based, mouse; conditions: null cells, SU5416 500 nM or IFN-γ 100 ng/ml, 4 hours
Description: An important role for the AHR in the immune system, and specifically T-cell differentiation, has been recognized and continues to be characterized in the literature, [7]. Some ligands of the AHR have the ability to enhance Treg differentiation from naïve T-cells (TCDD, kynurenine), while others direct differentiation towards Th17 effector cells (FICZ). […] IDO has long been known to play a role in Treg generation, and may be central to the mechanism of Dendritic Cell (DC)-directed Treg generation. We as well as others have previously shown that IDO mRNA can be induced by ligands of the AHR, and that the mechanisms of IDO-directed Treg generation may depend on the AHR [25]. […] As described in the Methods, naïve T-cells were sorted using magnetic bead separation, and placed in culture for 5 days with allogeneic pDCs separated from BALB/C mice. SU5416, TCDD, FICZ, or media alone was added at the start of culture. After 5 days, cells were collected and mRNA harvested for qPCR analysis of IDO and FoxP3. […] We used a dose of 2 ng/ml TGF-β, which in our hands has been a suboptimal dose for Treg generation (4 ng/ml has been optimal in our hands). […]
A. Spleens were harvested from mice and processed in the standard fashion. […] Same assay as A, but mRNA for CYP1B1 and IDO were measured. […] Same assay as in C, but IDO mRNA was assessed. * - p≤0.05. * - p≤0.01. […]

[2] = known value; cited from earlier work

For Cc1cc(C)c(C=C2C(=O)Nc3ccccc32)[nH]1 [SU5416, 3-(3,5-dimethyl-1H-pyrrol-2-ylmethylene)-1,3-dihydro-indole-2-one], the “IDO mRNA induction” value [1] is listed as “not null cells” and the plasma half-life [2] is listed as 30 min.
